20 molecules from the OPERA property sets (Mansouri et al. 2018) can be followed below.

With `[N-]=[N+]=N[C@H]1C[C@H](n2cnc3c(N)nc(N)nc32)O[C@@H]1CO`, the logP came to 0.24.

The molecule `O=c1ccn(C2CC(F)C(CO)O2)c(=O)[nH]1` (stereo not given) gave a logP of -0.49.

Molecule `Nc1nc(=O)c2ncn([C@H]3C=C[C@@H](CO)O3)c2[nH]1` registered a lipophilicity (logP) of -1.21.

In the case of `O=c1ccn(C2CC(O)C(CO)O2)c(=O)[nH]1` (stereo not given), the logP is -1.51.

In turn, `O=c1[nH]c(=O)n([C@H]2C[C@H](F)[C@@H](CO)O2)cc1Cl` gave a logP of -0.17.

The molecule `[N-]=[N+]=NC1C(CO)OC(n2cnc3c(N)ncnc32)C1N=[N+]=[N-]` (stereo not given) had a lipophilicity (logP) of 0.8.

For the molecule `O=c1ccn([C@H]2C=C[C@@H](CO)O2)c(=O)[nH]1`, the logP is -1.07.

For the molecule `O=c1[nH]c(=O)n(C2CC(F)C(CO)O2)cc1Br` (stereo not given), the logP is -0.04.

Molecule `Nc1nc(N)c2ncn(C3CC(O)C(CO)O3)c2n1` (stereo not given) came in with a lipophilicity (logP) of -0.52.

As for `O=c1[nH]c(=O)n([C@H]2CC[C@@H](CO)O2)cc1Cl`, the logP was -1.11.

In turn, `[N-]=[N+]=NC1CC(n2ccc(=O)[nH]c2=O)OC1CO` (stereo not given) showed a lipophilicity (logP) of -0.32.

`Nc1ncnc2c1ncn2[C@H]1C[C@H](F)[C@@H](CO)O1`: the lipophilicity (logP) was found to be 0.08.

`O=c1[nH]c(=O)n(C2CCC(CO)O2)cc1Br` (stereo not given) showed a logP of -0.99.

Regarding `O=c1[nH]c(=O)n(C2CC(F)C(CO)O2)cc1I` (stereo not given), the log partition coefficient (logP) is 0.21.

With `Nc1nc(N)c2ncn(C3CC(F)C(CO)O3)c2n1` (stereo not given), the lipophilicity (logP) turned out to be 0.05.

`Cc1cn([C@H]2C[C@H](F)[C@@H](CO)O2)c(=O)[nH]c1=O` registered a logP of -0.28.

Take `Nc1nc(=O)c2ncn([C@H]3CC[C@@H](CO)O3)c2[nH]1`: the logP was -1.01.

Take `Nc1nc(=O)c2ncn([C@H]3C[C@H](F)[C@@H](CO)O3)c2[nH]1`: the logP is -0.66.

Molecule `O=c1[nH]c(=O)n([C@H]2CC[C@@H](CO)O2)cc1I` gave a lipophilicity (logP) of -0.61.

`[N-]=[N+]=N[C@H]1C[C@H](n2cnc3c(N)ncnc32)O[C@@H]1CO` showed a lipophilicity (logP) of 0.35.
